According to patent publication US9676766B2, “Triazolopyridines” (BAYER INTELLECTUAL PROPERTY GMBH, priority 2009, dated 2017):

Each molecule was assayed against T1, human kinase Mps-1 (Homo sapiens, UniProt P33981) (assay: Mps-1 Kinase Assay (TR-FRET)). Details: N-terminally GST-tagged human full length recombinant Mps-1; 10 μM ATP; 1 μM biotinylated peptide substrate; 60 min at 22° C.; read-out: MPS1 Inhibition, IC50 in M.
T1 construct: N-terminally GST-tagged human full length recombinant Mps-1 kinase; purchased Invitrogen, Karslruhe, Germany PV4071
T1 sequence (P33981 1-857): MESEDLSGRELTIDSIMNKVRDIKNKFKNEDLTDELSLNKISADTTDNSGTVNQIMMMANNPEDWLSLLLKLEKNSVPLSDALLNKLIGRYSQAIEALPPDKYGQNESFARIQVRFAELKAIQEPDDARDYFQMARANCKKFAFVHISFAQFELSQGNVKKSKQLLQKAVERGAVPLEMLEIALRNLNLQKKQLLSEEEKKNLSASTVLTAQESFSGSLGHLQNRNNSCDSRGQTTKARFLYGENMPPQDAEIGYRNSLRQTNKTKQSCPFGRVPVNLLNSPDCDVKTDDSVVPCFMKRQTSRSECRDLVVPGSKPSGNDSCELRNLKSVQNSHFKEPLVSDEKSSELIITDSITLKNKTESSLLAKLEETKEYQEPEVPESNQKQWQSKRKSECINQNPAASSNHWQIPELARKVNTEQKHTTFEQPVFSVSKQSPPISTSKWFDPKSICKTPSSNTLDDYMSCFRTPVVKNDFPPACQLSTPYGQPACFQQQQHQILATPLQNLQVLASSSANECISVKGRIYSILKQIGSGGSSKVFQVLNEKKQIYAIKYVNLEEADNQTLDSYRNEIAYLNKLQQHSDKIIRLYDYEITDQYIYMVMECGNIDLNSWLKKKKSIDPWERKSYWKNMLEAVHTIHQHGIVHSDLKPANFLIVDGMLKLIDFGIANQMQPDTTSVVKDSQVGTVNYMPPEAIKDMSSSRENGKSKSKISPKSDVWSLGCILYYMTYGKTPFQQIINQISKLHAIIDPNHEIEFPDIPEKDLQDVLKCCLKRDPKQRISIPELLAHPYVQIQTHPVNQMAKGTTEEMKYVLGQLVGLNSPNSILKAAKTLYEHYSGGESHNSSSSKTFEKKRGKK
Format: biochemical

Compound	IC50 [nM]
CN1CCC(NC(=O)c2cccc(-c3ccc4nc(Nc5ccccc5C#N)nn4c3)c2)CC1 [Example 9.3, 3-{2-[(2-cyanophenyl)amino][1,2,4]triazolo[1,5-a]pyridin-6-yl}-N-(1-methylpiperidin-4-yl)benzamide]	74
O=C(Nc1ccc(-c2ccc3nc(Nc4ccccc4C(F)(F)F)nn3c2)cc1)C1CC1 [Example 5.2, N-[4-(2-{[2-(trifluoromethyl)phenyl]amino}[1,2,4]triazolo[1,5-a]pyridin-6-yl)phenyl]cyclopropanecarboxamide]	180
NC(C(=O)Nc1ccc(-c2ccc3nc(Nc4ccccc4C(F)(F)F)nn3c2)cc1)c1ccccc1 (racemic) [Example 5.7, rac-2-amino-2-phenyl-N-[4-(2-{[2-(trifluoromethyl)phenyl]amino}[1,2,4]triazolo[1,5-a]pyridin-6-yl)phenyl]acetamide]	14
COc1ccccc1Nc1nc2ccc(-c3cccc(NC(=O)NCCN4CCOCC4)c3)cn2n1 [Example 8.13, 1-(3-{2-[(2-methoxyphenyl)amino][1,2,4]triazolo[1,5-a]pyridin-6-yl}phenyl)-3-[2-(morpholin-4-yl)ethyl]urea]	470
COc1ccccc1Nc1nc2ccc(-c3cccc(NC(=O)N4CCN(C)CC4)c3)cn2n1 [Example 8.8, N-(3-{2-[(2-methoxyphenyl)amino][1,2,4]triazolo[1,5-a]pyridin-6-yl}phenyl)-4-methylpiperazine-1-carboxamide]	620
COc1ccccc1Nc1nc2ccc(-c3cccc(NC(=O)N4CCOCC4)c3)cn2n1 [Example 8.10, N-(3-{2-[(2-methoxyphenyl)amino][1,2,4]triazolo[1,5-a]pyridin-6-yl}phenyl)morpholine-4-carboxamide]	100
N#Cc1ccccc1Nc1nc2ccc(-c3cccc(C(=O)NC4CC4)c3)cn2n1 [Example 9.5, 3-{2-[(2-cyanophenyl)amino][1,2,4]triazolo[1,5-a]pyridin-6-yl}-N-cyclopropylbenzamide]	4.4
N#Cc1ccccc1Nc1nc2ccc(-c3ccc(NC(=O)Nc4ccccc4)cc3)cn2n1 [Example 3.7, 1-(4-{2-[(2-cyanophenyl)amino][1,2,4]triazolo[1,5-a]pyridin-6-yl}phenyl)-3-phenylurea]	12
